Reference: US20250026741A1, “INHIBITORS OF THE ONCOGENIC SHP2 PHOSPHATASE AND USES THEREOF” (Sanford Burnham Prebys Medical Discovery Institute, priority 2021, published 2025)

Tests used:
[1] = tested on: patient-derived AML cells; test: Viability of AML patient-derived cells; assay type: cell-based, human; details: 10 μM, two patient samples, 2 d, 4 d, or 6 d
From the text: Patient-derived AML cells were obtained from Carol Burian and Dr. James Mason (Scripps MD Anderson, La Jolla, CA) under approved IRB protocol 13-6180. Peripheral blood mononuclear cells (PBMCs) were isolated by traditional Ficoll-Paque™ PLUS (17-1440-02, GE Healthcare) centrifugation according to the manufacturer's instructions, and red blood cells were lysed using RBC Lysis Buffer (Alfa Aesar, cat. #J62990). Final PBMCs were resuspended in Bambanker serum-free freezing medium (Wako Pure Chemical Industries, Ltd.) and stored frozen before cell viability was assessed as described below.
(§1) Viability of AML, esophageal carcinoma, and TF-1 cells was assessed using the ATP-depletion assay CellTiter-Glo® (Promega). Cells were harvested at 1×10^6/mL to 2×10^6 cells/mL with cell numbers determined by trypan blue using the Countess Cell counter (Thermo Scientific) and resuspended in culture media. 3K cells (in 20 mL) were seeded in a 384-well format white, clear bottom microplate (#781098, Greiner) spotted with test compound or vehicle control (DMSO) using an Echo 555 Liquid Handler. […] Luminescence was read on a Tecan Spark® Multimode Microplate Reader and data analyzed using Graph Pad Prism software.

[2] = tested on: p-ERK1/2 in U-937 AML cells (SHP2 G60R); test: Phospho-ERK1/2 immunoblot analysis, U-937; assay type: cell-based; details: U-937, 24 h; #02 1, 3, 10, 30 μM; RMC-4550 1 μM
From the text: (§2) Oncogenic gain-of-function mutations in SHP2 drive leukemogenesis in a significant number of leukemia patients. However, due to their unique mechanism of action, the existing SHP2 allosteric inhibitors lack activity against the most common SHP2 oncogenic variants. Thus, we tested whether #02 can inhibit the growth of leukemia cells expressing oncogenic SHP2 variants. […] Using the U-937 AML cell line, which harbors a G60R oncogenic mutation in SHP2, we treated cells with either #02 or RMC-4550 at various concentrations, ranging from 0.123 to 30 μM (FIG. 4A). […] We also assessed the effects of #02 and RMC-4550 on ERK1/2 activation in the SHP2 mutant U-937 cell line. Similar to the immunoblot experiments described above, U-937 AML cells were treated with either vehicle control (DMSO), #02 (1, 3, 10, or 30 μM), or with RMC-4550 (1 μM) for 24 h and processed for p-ERK1/2 immunoblot analysis (FIG. 4B).
Total protein extracts were prepared in modified RIPA lysis buffer (25 mM Tris-HCl, pH 7.4, 10% glycerol, 0.2% Triton™ X-100, 150 mM NaCl, 2 mM Na3VO4, 1 mM EDTA) containing a protease inhibitor cocktail (Roche Applied Science, Indianapolis, IN). […] Densitometric quantitation of immunoblots was performed using Image Studio Lite Software. Changes of phosphorylated ERK1/2 to total ERK1/2 rations are expressed as percentage of the vehicle-treated controls. […]

[3] = tested on: U-937 AML cells harboring G60R oncogenic mutation in SHP2; test: Cell viability assay, U-937 (SHP2 G60R); assay type: cell-based; details: U-937 cells (SHP2 G60R), 0.123 to 30 μM, 3 d
From the text: as §2
as §1, with “media.” for “media. 3K cells (in 20 mL) were seeded in a 384-well format white, clear bottom microplate (#781098, Greiner) spotted with test compound or vehicle control (DMSO) using an Echo 555 Liquid Handler.”

[4] = tested on: p-ERK1/2 in MOLM-13 AML cells; test: Phospho-ERK1/2 immunoblot analysis, MOLM-13; assay type: cell-based; details: MOLM-13, 3 h treatment; #02 3, 10, 30 μM; RMC-4550 1 μM
Experimental: Because SHP2 activity is critical for ERK activation, we used phospho-ERK1/2 (p-ERK1/2) as a more direct readout of SHP2 inhibitor efficacy. […] However, a greater effect of #02 was observed after 24 h treatment. […] This p-ERK rebound in MOLM-13 cells treated with RMC-4550 is reminiscent of previously reported data from human hepatoma Hep3B cells treated with SHP099.
Total protein extracts were prepared in modified RIPA lysis buffer (25 mM Tris-HCl, pH 7.4, 10% glycerol, 0.2% Triton™ X-100, 150 mM NaCl, 2 mM Na3VO4, 1 mM EDTA) containing a protease inhibitor cocktail (Roche Applied Science, Indianapolis, IN). Equal amounts of protein were separated on 4-12% (p-ERK1/2 blots) or 4-20% (SHP2 blots) Bis-Tris gels by SDS-PAGE and transferred to nitrocellulose (p-ERK1/2 blots) or 0.2 μm PVDF (SHP2 blots) membranes. Membranes were blocked in 5% dry milk (Bio-Rad, Hercules, CA) in TBS-Tween 20 (0.1% vol/vol; TBS-T) for 1 h at room temperature. Protein-bound membranes were incubated with indicated primary antibody overnight at 4° C. After washing three times with TBS-T, membranes were incubated for 1 h with horseradish peroxidase-conjugated secondary antibody, then visualized by an ECL Prime detection system (GE Healthcare). Immunoblotting experiments were carried out at least three times and representative images are shown. Densitometric quantitation of immunoblots was performed using Image Studio Lite Software. Changes of phosphorylated ERK1/2 to total ERK1/2 rations are expressed as percentage of the vehicle-treated controls. The following antibodies were used: Phospho-Erk1/2 Ab, Cell Signaling, #9101S; total Erk1/2 Ab, Cell Signaling, #9102S; SHP2 Ab, Bethyl, A301-544A, lot #1; GAPDH (14C10) mAb, Cell Signaling, #2118S, lot #14.

[5] = tested on: TNBC cells (BT-549 and MDA-MB-468); test: 11-day colony formation assay; assay type: cell-based; details: 5, 10, or 20 μM, 11 days
Experimental: (§3) Next, we performed an 11-day colony formation assay with TNBC cells treated with #02 or SHP099 at 5, 10, or 20 μM (FIG. 3D).
MDA-MB-468 and […] triple-negative breast cancer cells were maintained in DMEM+10% FBS supplemented with 1× Penicillin-Streptomycin/L-Glutamine (Omega Scientific). 1.5K cells (in […]) were seeded per well of a standard 24-well tissue culture plate (Falcon) and allowed to adhere for 24 h, before the addition of drug(s) as described. After a further 96 h, media was replaced with fresh media containing the same test compounds and concentrations. After 11 days, media was removed and cells stained with 0.5% Crystal Violet (in 20% methanol) for 20 min with agitation @ 80 rpm. Stain was removed and plates with stained cells were washed by being submerged in excess deionized water and allowed to air dry overnight before imaging.

[6] = tested on: MOLM-13 AML cells (expressing WT SHP2); test: Cell viability assay (CellTiter-Glo), MOLM-13; assay type: cell-based; details: regular MOLM-13 cells, 72 h, CRISPR comparison experiment
Experimental: as §3
Finally, we evaluated the selectivity of our top two compounds, #01 and #02, on MOLM-13 AML cells in which SHP2 was depleted using CRISPR-Cas9 knock-out (KO). High-efficiency Cas9-editing MOLM-13 cells were generated by transducingMOLM-13 cells with a Cas9 lentiviral construct. Stable clones were tested for editing efficiency by performing TIDE analysis (45), and these MOLM13-Cas9 cells were transduced with a lentiviral construct containing an AAVS1 single guide RNA (sgRNA) and an mCherry reporter for bulk-sorting of cells with successful AAVS1 editing. […] Cells were treated with inhibitors at various concentrations (ranging from […] to 58 nM) or vehicle control (DMSO) for 72 h, before cell viability was assessed.
Viability of AML, esophageal carcinoma, and TF-1 cells was assessed using the ATP-depletion assay CellTiter-Glo® (Promega). Cells were harvested at 1×10^6/mL to 2×10^6 cells/mL with cell numbers determined by trypan blue using the Countess Cell counter (Thermo Scientific) and resuspended in culture media. […] Luminescence was read on a Tecan Spark® Multimode Microplate Reader and data analyzed using Graph Pad Prism software. […]

[7] = tested on: BT-549 triple-negative breast cancer cells; test: TNBC cell viability assay (CellTiter-Glo), BT-549; assay type: cell-based; details: BT-549 cells, various concentrations
Experimental: as §3
(§4) Triple-negative breast cancer cell viability was assessed using the ATP-depletion assay CellTiter-Glo (Promega). Briefly, 2.5K cells in […] media (RPMI+10% FBS+1× Penicillin-Streptomycin (Omega Scientific)) were seeded per well of a 384-well tissue culture treated plate (Greiner). 25 nL of 1000× test compound were added using a Labcyte Echo acoustic dispenser and the cells incubated for 5 days before addition of […] of CellTiter-Glo reagent as described by the manufacturer. Luminescence was detected on a BioTek Synergy 2 microplate reader and the values normalized to those of vehicle (DMSO) treated controls before being plotted using GraphPad Prism.

[8] = tested on: MDA-MB-468 triple-negative breast cancer cells; test: TNBC cell viability assay (CellTiter-Glo), MDA-MB-468; assay type: cell-based; details: MDA-MB-468 cells, various concentrations
Experimental: as §3, §4

[9] = tested on: MOLM-13-Cas9-mCherry cells with SHP2 KO; test: SHP2 CRISPR-Cas9 knockout inhibitor selectivity assay (cell viability); assay type: cell-based; details: MOLM-13-Cas9-mCherry SHP2 KO cells, 72 h
Experimental: Finally, we evaluated the selectivity of our top two compounds, #01 and #02, on MOLM-13 AML cells in which SHP2 was depleted using CRISPR-Cas9 knock-out (KO). High-efficiency Cas9-editing MOLM-13 cells were generated by transducingMOLM-13 cells with a Cas9 lentiviral construct. Stable clones were tested for editing efficiency by performing TIDE analysis (45), and these MOLM13-Cas9 cells were transduced with a lentiviral construct containing an AAVS1 single guide RNA (sgRNA) and an mCherry reporter for bulk-sorting of cells with successful AAVS1 editing. SHP2 KO was achieved by transducing MOLM-13-Cas9-mCherry cells with a lentivirus containing SHP2 dual sgRNAs, resulting in ˜80% reduction of SHP2 protein levels (FIG. 3G). #01, #02, and the SHP2 allosteric inhibitor SHP099 were tested in parallel on regular MOLM-13 cells (expressing WT SHP2) and MOLM-13-Cas9-mCherry cells with SHP2 KO. Cells were treated with inhibitors at various concentrations (ranging from […] to 58 nM) or vehicle control (DMSO) for 72 h, before cell viability was assessed.
High-efficiency Cas9-editing MOLM-13 cells were generated by transducing MOLM-13 cells with the pLenti-Cas9-blasticidin construct (Addgene plasmid #52962) and selecting single stable clones using flow-sorting. Clones were then tested for editing efficiency by performing TIDE analysis (45). These MOLM13-Cas9 cells were then transduced with a lentiviral construct containing an AAVS sgRNA and an mCherry reporter out of frame and downstream of an AAVS sgRNA targeting site. […]
For SHP2 KO, dual sgRNAs targeting SHP2 were cloned in the pLentiGuide puro vector (Addgene plasmid #52963) using a published protocol (50). […] SHP2 KO was evaluated by immunoblotting. […] For SHP2 KO, MOLM-13-Cas9-mCherry cells were seeded in nontreated 6-well-plates ([…] in 2.5 mL), with cell numbers determined by trypan blue using the Countess Cell counter (Thermo Scientific). […] Cell viability was assessed using the ATP-depletion assay CellTiter-Glo® (Promega) as described above, and data were analyzed using GraphPad Prism software.

[10] = tested on: MLL-AF10 leukemia cells expressing wild-type SHP2; test: Cell viability assay, MLL-AF10 cells expressing wild-type SHP2; assay type: cell-based, mouse
Experimental: (§5) Cell viability assays of SHP099, #01, and #02 against mouse MLL-AF10 leukemia cells were conducted. Two MLL-AF10 cell lines were employed, one expressing wild-type SHP2, and the other expressing E76K mutant SHP2.

[11] = tested on: MLL-AF10 leukemia cells expressing E76K mutant SHP2; test: Cell viability assay, MLL-AF10 cells expressing E76K mutant SHP2; assay type: cell-based, mouse
Experimental: as §5

SMILES	effect on growth of patient-derived AML samples [1]	ERK1/2 activation (p-ERK1/2 levels) [2]	IC50 [3]	ERK1/2 activation (p-ERK1/2 levels) [4]	effect on colony formation [5]	IC50 [6]	effect on TNBC cell viability [7]	effect on TNBC cell viability [8]	effect on viability of SHP2 KO cells [9]	IC50 [10]	cell viability IC50 [11]
Cc1nc(N2CCC3(CC2)CO[C@@H](C)[C@H]3N)c(CO)nc1-c1cccc(Cl)c1Cl [RMC-4550, reference compound]	only affected the growth of sample 2	a decrease in p-ERK1/2 levels was not detectable	33 µM	highly effective in impeding ERK1/2 activation							
CC1(N)CCN(c2cnc(-c3cccc(Cl)c3Cl)c(N)n2)CC1 [SHP099, reference compound]					very weak effect on colony formation	9.4 µM	very minor effect on TNBC cell viability	very minor effect on TNBC cell viability	either no effect, or a greatly reduced effect	4 µM	insufficient for an IC50 value to be determined
